The target of assay [1] is T1, Alpha-2C adrenergic receptor (Rattus norvegicus, UniProt P22086).
T1 sequence (P22086 whole entry): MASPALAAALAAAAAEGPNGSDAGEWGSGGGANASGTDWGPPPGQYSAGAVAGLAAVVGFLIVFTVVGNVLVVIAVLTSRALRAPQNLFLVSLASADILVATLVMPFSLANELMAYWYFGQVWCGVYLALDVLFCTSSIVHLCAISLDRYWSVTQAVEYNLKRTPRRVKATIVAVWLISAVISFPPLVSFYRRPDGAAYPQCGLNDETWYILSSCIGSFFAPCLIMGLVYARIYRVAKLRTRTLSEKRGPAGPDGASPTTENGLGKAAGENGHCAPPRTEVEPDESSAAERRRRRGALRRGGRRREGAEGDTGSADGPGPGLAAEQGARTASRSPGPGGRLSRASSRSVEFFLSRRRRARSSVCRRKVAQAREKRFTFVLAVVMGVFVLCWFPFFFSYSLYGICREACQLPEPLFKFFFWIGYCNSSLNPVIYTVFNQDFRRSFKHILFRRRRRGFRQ

For assay [2], the target named is T2, Muscarinic acetylcholine receptor M2 (Rattus norvegicus, UniProt P10980).
T2 sequence (P10980 whole entry): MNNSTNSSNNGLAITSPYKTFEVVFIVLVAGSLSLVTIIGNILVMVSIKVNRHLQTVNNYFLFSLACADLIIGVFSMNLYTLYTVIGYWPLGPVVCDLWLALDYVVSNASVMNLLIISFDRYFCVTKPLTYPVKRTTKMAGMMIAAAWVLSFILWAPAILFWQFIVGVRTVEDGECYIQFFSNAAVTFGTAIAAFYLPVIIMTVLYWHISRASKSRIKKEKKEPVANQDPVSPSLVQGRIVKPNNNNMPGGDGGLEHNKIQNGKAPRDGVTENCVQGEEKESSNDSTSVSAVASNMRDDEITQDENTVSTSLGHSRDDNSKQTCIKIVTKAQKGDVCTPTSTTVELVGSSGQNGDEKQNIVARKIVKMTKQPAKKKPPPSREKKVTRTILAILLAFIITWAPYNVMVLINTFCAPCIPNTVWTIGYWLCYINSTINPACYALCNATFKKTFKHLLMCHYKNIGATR

Another assay concerns the target Histamine H1 receptor (Rattus norvegicus, UniProt P31390).

pKi: −log10 of the molar value.

Chain of Histamine H1 receptor (P31390 whole entry): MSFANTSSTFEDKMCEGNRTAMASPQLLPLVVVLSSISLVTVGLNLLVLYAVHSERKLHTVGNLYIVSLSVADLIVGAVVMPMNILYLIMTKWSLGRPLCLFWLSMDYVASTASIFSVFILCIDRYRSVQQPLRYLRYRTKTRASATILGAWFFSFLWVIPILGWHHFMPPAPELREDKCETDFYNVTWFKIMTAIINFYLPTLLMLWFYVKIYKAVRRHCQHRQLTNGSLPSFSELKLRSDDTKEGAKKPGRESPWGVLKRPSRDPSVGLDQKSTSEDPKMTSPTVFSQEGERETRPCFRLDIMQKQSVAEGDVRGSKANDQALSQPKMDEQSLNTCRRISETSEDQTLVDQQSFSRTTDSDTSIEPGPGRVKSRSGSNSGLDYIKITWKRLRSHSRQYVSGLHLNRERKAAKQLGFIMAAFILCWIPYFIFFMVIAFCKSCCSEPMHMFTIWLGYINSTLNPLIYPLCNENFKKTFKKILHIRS

The term pKi denotes the Ki on a negative log10 scale, so that one unit is a factor of ten. A low value points to a high Ki. `CNCCCN1c2ccccc2CCc2ccccc21` [Desmethylimipramine]: the pKi in assay [1] was 5.04; in assay [2], 6.22.

Consider `CN(C)C[C@@H]1C2CCC(CC2)[C@@H]1c1ccc(Cl)c(Cl)c1` [CAS_62373-97-1], for which the negative logarithm of the Ki (pKi) in assay [1] was < 5.00; at Histamine H1 receptor, 5.70.

`CN(C)CCCN1c2ccccc2CCc2ccccc21`: the negative-log Ki (pKi) was 5.34 in assay [1], 6.49 in assay [2] and 7.51 on Histamine H1 receptor.

Consider `CNCCC(Oc1ccccc1C)c1ccccc1` (configuration not stated) [Methyl-(3-phenyl-3-o-tolyloxy-propyl)-amine(tomoxetine)], for which the negative-log Ki (pKi) in assay [1] is < 5.00; in assay [2], < 5.00; on Histamine H1 receptor it was 5.19.

As to `CN1Cc2c(N)cccc2[C@H](c2ccccc2)C1` [(+/-)-2-Methyl-4-phenyl-1,2,3,4-tetrahydro-isoquinolin-8-ylamine], the negative logarithm of the Ki (pKi) in assay [1] was 5.21; at Histamine H1 receptor, < 5.00.

The record behind these values is BindingDB's records for PubMed 6123593 (Eli Lilly, 1982).
